Some test systems named below: SK-MEL-5 melanoma; IGROV1 ovarian; SR leukemia; MDA-MB-435; K-562 leukemia; MALME-3M melanoma; SN12C renal; CCRF-CEM leukemia; SNB-75 CNS; A549 NSCLC.
Common to all, as to assay: NCI-60 cell line screen, 48 h

Experimental findings from PubChem BioAssay (NCI) are described below.

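Five compound concentrations were applied to cells in 96-well plates for 48 hours; endpoints were derived by simple linear interpolation of the resulting dose-response curve. GI50 = concentration required for 50% inhibition of growth. TGI: total growth inhibition.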 Where a SMILES comes first, the peptide text is derived from it. [ ]: non-standard residue; d: D form. The star is where a group is joined. Palmitoyl = CCCCCCCCCCCCCCCC(=O)*; Cbz = O=C(OCc1ccccc1)*; Aib = CC(C)(N)C(=O)O; OBn = c1ccc(CO*)cc1

As for `[N-]=[N+]=CC(=O)OC(CCl)CCl`, the TGI in the assay with SK-MEL-5 melanoma, in the assay on IGROV1 ovarian, in the assay with SR leukemia, with MDA-MB-435, in the assay on K-562 leukemia and in the assay on MALME-3M melanoma was above 100 µM in each case. The same molecule gave a TGI with SN12C renal above 100 µM.

`O=C1C(=Nc2ccc(Nc3ccccc3)cc2)Oc2ccccc21`: the TGI was 4.92 µM with CCRF-CEM leukemia; 16.1 µM with SK-MEL-5 melanoma; 5.96 µM with IGROV1 ovarian; 4.71 µM in the assay on SR leukemia; 3.45 µM in the assay on MDA-MB-435; 8.52 µM in the assay with SNB-75 CNS. The TGI in the assay with A549 NSCLC was 10.7 µM; with K-562 leukemia it was 11.4 µM; in the assay with MALME-3M melanoma, 9.71 µM; in the assay on SN12C renal it was 4.62 µM.

Take `CC(C)(C)N=C(N)NC#N`: the TGI in the assay with CCRF-CEM leukemia, in the assay on SK-MEL-5 melanoma, with IGROV1 ovarian, in the assay on SR leukemia, with MDA-MB-435 and in the assay on SNB-75 CNS was above 100 µM in each case. Also, the TGI in the assay on A549 NSCLC, in the assay on K-562 leukemia, with MALME-3M melanoma and in the assay on SN12C renal was above 100 µM throughout.

For `c1ccc(C2=NOC(c3ccccc3)N2C23CC4CC(CC(C4)C2)C3)cc1` (stereo not given), the TGI in the assay on CCRF-CEM leukemia, in the assay with SK-MEL-5 melanoma, in the assay with IGROV1 ovarian, with SR leukemia, with MDA-MB-435 and with SNB-75 CNS was above 10 µM in each case. In addition, the TGI in the assay with A549 NSCLC, with K-562 leukemia, in the assay on MALME-3M melanoma and with SN12C renal was above 10 µM throughout.

For the molecule `COc1cc(O)c2c(=O)c(OC)c(-c3ccc(OC)c(O)c3)oc2c1`, the TGI with CCRF-CEM leukemia, in the assay with SK-MEL-5 melanoma, with IGROV1 ovarian, with SR leukemia, with MDA-MB-435 and in the assay on SNB-75 CNS was above 100 µM in each case. Besides, the TGI in the assay with A549 NSCLC, with K-562 leukemia, in the assay on MALME-3M melanoma and in the assay with SN12C renal was above 100 µM each time.

Regarding `COc1cc(C=O)ccc1O`, the TGI with CCRF-CEM leukemia, in the assay on SK-MEL-5 melanoma, with IGROV1 ovarian, in the assay on SR leukemia, in the assay with MDA-MB-435 and in the assay on SNB-75 CNS was above 100 µM each time. Besides, the TGI in the assay with A549 NSCLC, with K-562 leukemia, with MALME-3M melanoma and with SN12C renal was above 100 µM each time.

Turning to `CCOC(=O)C(NC(=O)CC)(N1CCN(c2cc3c(cc2F)c(=O)c(C(=O)O)cn3C2CC2)CC1)C(F)(F)F` (stereo not given), the TGI in the assay with CCRF-CEM leukemia, with SK-MEL-5 melanoma, in the assay on IGROV1 ovarian, in the assay on SR leukemia, with MDA-MB-435 and in the assay with SNB-75 CNS was above 100 µM in each case. Also, the TGI in the assay on A549 NSCLC, with K-562 leukemia, in the assay on MALME-3M melanoma and in the assay on SN12C renal was above 100 µM in each case.

In the case of `C=C(C)CNCCN`, the TGI in the assay with CCRF-CEM leukemia, in the assay with SK-MEL-5 melanoma, with IGROV1 ovarian, with SR leukemia, with MDA-MB-435 and in the assay on A549 NSCLC was above 100 µM throughout. In addition, the TGI in the assay on K-562 leukemia, in the assay with MALME-3M melanoma and in the assay with SN12C renal was above 100 µM in each case.

In the case of `C[C@@H]1CCC2[C@@H](C)[C@@H](O[C@H]3O[C@@H]4O[C@@]5(C)CCC6[C@H](C)CCC([C@H]3C)[C@]64OO5)O[C@@H]3O[C@@]4(C)CCC1[C@@]23OO4` (stereo not given in full), the TGI with CCRF-CEM leukemia, with SK-MEL-5 melanoma, in the assay with IGROV1 ovarian, with SR leukemia, in the assay on MDA-MB-435 and with SNB-75 CNS was above 25 µM throughout. For the same molecule, the TGI with A549 NSCLC, in the assay on K-562 leukemia and in the assay on SN12C renal was above 25 µM in each case.

For `CC(NC(=O)C(C)(C)NC(=O)C(CC(=O)OCc1ccccc1)NC(=O)OCc1ccccc1)C(N)=O` (stereo not given) (Cbz-Asp(OBn)-[Aib]-Ala-NH2; configuration not given here), the TGI in the assay on CCRF-CEM leukemia, in the assay with SK-MEL-5 melanoma, in the assay on IGROV1 ovarian, in the assay on SR leukemia, in the assay on MDA-MB-435 and with A549 NSCLC was above 100 µM throughout. Also, the TGI with K-562 leukemia, with MALME-3M melanoma and with SN12C renal was above 100 µM throughout.

On to `CCCCCCCCCCCCCCCC(=O)N1CCCC1C(=O)NCC(=O)NC(Cc1ccccc1)C(=O)N1CCCC1C(=O)NC(CO)C(=O)NC(Cc1ccc(O)cc1)C(=O)NC(CCCCN)C(=O)NC(CC(C)C)C(=O)NC(CCCN=C(N)N)C(=O)N1CCCC1C(=O)NCC(N)=O` (stereo not given) (Palmitoyl-PGFPSYKLRPG-NH2; configuration not given here), for which the GI50 in the assay on CCRF-CEM leukemia was 17 µM; in the assay on SK-MEL-5 melanoma it was 28.7 µM; with IGROV1 ovarian, 18.6 µM; in the assay on SR leukemia it was 16.5 µM; with MDA-MB-435, 23.6 µM; with SNB-75 CNS, 21.7 µM. The results for the GI50 in the assay on A549 NSCLC, in the assay with K-562 leukemia and in the assay with MALME-3M melanoma were 17.5 µM, 14.3 µM and 0.45 µM, respectively. For the same molecule, the TGI in the assay on CCRF-CEM leukemia was 33.8 µM; with SK-MEL-5 melanoma it was above 100 µM; in the assay on IGROV1 ovarian, 48.8 µM; in the assay on SR leukemia it was 44.9 µM; in the assay on MDA-MB-435 it was above 100 µM; with SNB-75 CNS, 49.3 µM. In addition, the TGI in the assay with A549 NSCLC worked out at 35.4 µM; with K-562 leukemia it was 38.5 µM; in the assay on MALME-3M melanoma it was 5.73 µM.

As for `CNc1[nH]c(=S)nc2sc3c(c12)CCCC3`, the TGI in the assay with SK-MEL-5 melanoma, in the assay with IGROV1 ovarian, in the assay with SR leukemia, in the assay with MDA-MB-435, in the assay on SNB-75 CNS and with K-562 leukemia was above 75 µM in each case. Further, the TGI in the assay on MALME-3M melanoma and in the assay with SN12C renal was above 75 µM in each case.

In the case of `Nc1ncc2c(n1)-c1ccccc1OC2N1CCCC1` (stereo not given), the TGI with CCRF-CEM leukemia, with SK-MEL-5 melanoma, with IGROV1 ovarian, with SR leukemia, in the assay with MDA-MB-435 and with SNB-75 CNS was above 100 µM in each case. Besides, the TGI with A549 NSCLC, in the assay with K-562 leukemia, with MALME-3M melanoma and in the assay with SN12C renal was above 100 µM each time.
